Data on three molecules can be found in patent publication US20210346506A1, “PRODRUG OF ITRACONAZOLE AND USES THEREOF” (priority 2020, published 2021).

The nature of series [1]: Compound stability test in human blood. The series is classed as in vitro ADME. To be noted: for Remaining Percentages (%) / half-life at 1 μM: 37° C., 1 μM; for half-life at 1 μM: in vitro half-life in human blood. The method, then: (§1) One (1) mM test compound working solution was prepared in DMSO. One (1) mM propantheline working solution was prepared in acetonitrile, wherein propantheline was used as positive control in this assay.
(§2) Ten (10) μL of each test compound solution and the control compound solution were respectively added into a 96 deep well plate, and 40 μL of acetonitrile:water (V/V=1:1) was added to each well to dilute the 1 mM test compound solution to 200 μM working solution.
(§3) Mouse blood (male CD-1 mouse blood, Pharmaron, Lot# PH-ADME-Mouse-20180329) or human blood (Pharmaron, Lot# PH-ADME-Human-20180329) of 398 μL was added to each well of an incubation plate, and then the incubation plate was pre-warmed at 37° C. for 15 minutes. After the pre-incubation, 2 μL of 200 μM working solution prepared above was spiked to the pre-warmed 398 μL blood to reach a final concentration of 1 μM. The final concentration of DMSO was 0.1% and the final concentration of acetonitrile was 0.2%. The assay was performed in duplicate.
(§4) The incubation plate was incubated at 37° C. water bath with shaking at 50 rpm, and aliquots of 50 μL were taken from each well of the incubation plate at 0, 10, 30, 60, 90, 120 and 180 minutes.
(§5) The reaction was stopped by the addition of 50 μL of pure water. The plate was vortexed for 30 seconds at 1,000 rpm and then added with 300 μL of cold acetonitrile containing internal standards (100 nM aprozolam, 200 nM caffeine, 100 nM tolbutamide).
(§6) All samples were vortexed for 10 minutes, followed by centrifugation at 14,000 rpm for 15 minutes to precipitate proteins. 100 μL of each supernatant was transferred to a new plate, and diluted with ultrapure water according to the LC-MS signal response and peak shape.
(§7) Samples were analyzed by LC-MS/MS.
(§8) • LC system: ACQUITY UPLC® I-Class • MS analysis: Waters XEVO® TQ-D with an ESI interface • Column temperature: 40° C. • Injection volume: 3 μL • Column: Waters XSelect HSS T3 C18, 2.5 μm, 2.1×50 mm column • Mobile phase: 0.1% formic acid in water (A) and 0.1% formic acid in acetonitrile (B)
(§9) • Ion source: Turbo spray • Ionization model: ESI • Scan type: MRM • Cone gas: 150 L/h • Desolvation gas: 1000 L/h • Desolvation temperature: 500° C. • Capillary voltage: 3.00 KV
(§10) All calculations were carried out using Microsoft Excel. Peak area ratios were determined from extracted ion chromatograms, and percent compounds remaining at each time point were calculated by the following equation:
(§11) Remaining Percentaget min(%)=Peak Area Ratiot min/Peak Area Ratio0 min×100, where Peak Area Ratiot min referred to peak area ratio of control and test compounds at t min; and Peak Area Ratio0 min referred to peak area ratio of control and test compounds at zero time point. The in vitro half-life (in vitro t1/2) was determined from the slope value: In vitro T1/2=−(0.693/k).

Series [2] can be described thus: Compound stability test in mouse blood. The series is classed as in vitro ADME. To be noted: for half-life at 1 μM: male, CD-1, in vitro half-life in mouse blood; for half-life at 1 μM / Remaining Percentages (%): 37° C., 1 μM. How it is done:
as §1, §2, §3, §4, §5, §6, §7, §8, §9, §10, §11

Series [3] is described as follows: Pharmacokinetic study of itraconazole release in mice after intravenous and oral dosing of Compound 3. The series is classed as in vivo, mouse. To be noted: for Plasma itraconazole Concentration (ng/mL): mice, individual mice. The method, then: Compound 3 was dissolved in DMSO:PEG400:water (1:4:5, v/v/v) with a final concentration of 0.2 mg/ml or 0.5 mg/ml. The 0.2 mg/ml solution was used for intravenous dosing, and the 0.5 mg/ml solution was for oral dosing.
Three male C57BL/6 mice were intravenously administered with Compound 3 at a dose of 1.0 mg/kg, and blood samples were collected at 2 min, 15 min, 30 min, 1 h, 2 h, 4 h, 6 h, 8 h, and 24 h post administration.
Three male C57BL/6 mice were orally given Compound 3 at a dose of 5.0 mg/kg, and blood samples were collected at 15 min, 30 min, 1 h, 2 h, 4 h, 6 h, 8 h, and 24 h post administration.
(§12) And dose levels were corrected in PK parameter calculation due to the salt factor.
(§13) The blood samples were subject to LC-MS/MS analysis, to monitor the plasma concentrations of both the parent compound and Itraconazole.
(§14) Column: Waters XSELECT HSS T3 2.5 μm 2.1×50 mm
(§15) Mobile phase: 5% Acetonitrile in Water (0.1% Formic acid) (A) and 95% Acetonitrile in Water (0.1% Formic acid) (B)
(§16) Gradient: flow rate at 0.6 mL/min
(§17) AB Sciex Triple Quad 5500 LC/MS/MS instrument (Serial NO. BB212611510)
(§18) Quantification: Internal Standard Method

A short description of series [4]: Pharmacokinetic study of itraconazole release in mice after intravenous and oral dosing of Compound 6. The series is classed as in vivo, mouse. To be noted: for Plasma itraconazole Concentration (ng/mL): mice, individual mice. How it is done: Compound 6 was dissolved in DMSO:PEG400:water (1:4:5, v/v/v) with a final concentration of 0.2 mg/ml or 0.5 mg/ml. The 0.2 mg/ml solution was used for intravenous dosing, and the 0.5 mg/ml solution was for oral dosing.
Three male C57BL/6 mice were intravenously administered with Compound 6 at a dose of 1.0 mg/kg, and blood samples were collected at 2 min, 15 min, 30 min, 1 h, 2 h, 4 h, 6 h, 8 h, and 24 h post administration.
Three male C57BL/6 mice were orally given Compound 6 at a dose of 5.0 mg/kg, and blood samples were collected at 15 min, 30 min, 1 h, 2 h, 4 h, 6 h, 8 h, and 24 h post administration.
as §12, §13, §14, §15, §16, §17, §18

The conditions of series [5]: relatively low dose; cited from earlier work.

Usually half-life stands for how long it takes for the measured level to halve. A low value points to rapid decline. `CCC(C)n1ncn(-c2ccc(N3CCN(c4ccc(OCC5COC(Cn6c[n+](COC(C)=O)cn6)(c6ccc(Cl)cc6Cl)O5)cc4)CC3)cc2)c1=O.[Cl-]` (stereo not shown) [Compound 3]: the “stability in blood, in words” value in series [1] (human blood) and in series [2] (mouse blood) was “more stable among exemplary compounds” throughout. Also, the “Remaining Percentages (%)” value in series [1] (human blood, 0 min) is 100%; in series [1] (human blood, 10 min) it was 94.0%; in series [1] (human blood, 30 min), 82.3%; in series [1] (human blood, 60 min), 67.5%; in series [1] (human blood, 90 min) it was 61.5%; in series [1] (human blood, 120 min) it was 55.3%. Besides, the “Remaining Percentages (%)” value in series [1] (human blood, 180 min) came out at 34.3%; in series [2] (mouse blood, 0 min) it was 100%; in series [2] (mouse blood, 10 min) it was 88.1%; in series [2] (mouse blood, 30 min) it was 67.1%; in series [2] (mouse blood, 60 min), 46.3%; in series [2] (mouse blood, 90 min) it was 30.3%. Moreover, the “Remaining Percentages (%)” value in series [2] (mouse blood, 120 min) is recorded as 24.4%; in series [2] (mouse blood, 180 min), 12.0%. In addition, the half-life at 1 μM stood at 2.05 h in series [1] and 0.983 h in series [2]. Further, the “abnormal clinical symptoms during the test” value in series [3] (male C57BL/6 mice, 1.0 mg/kg intravenous or 5.0 mg/kg oral Compound 3) is “No mice were observed with abnormal clinical symptoms”. Moreover, the “Plasma itraconazole Concentration (ng/mL)” value in series [3] (IV Dose 0.860 mg/kg Compound 3, 8 h, 0.86 mg/kg) is listed as “BLOQ”; in series [3] (IV Dose 0.860 mg/kg Compound 3, 24 h), “BLOQ”; in series [3] (PO Dose 4.30 mg/kg Compound 3, 24 h), “BLOQ”.

As for `CCOC(=O)OC[n+]1cnn(CC2(c3ccc(Cl)cc3Cl)OCC(COc3ccc(N4CCN(c5ccc(-n6cnn(C(C)CC)c6=O)cc5)CC4)cc3)O2)c1.[Cl-]` (stereo not shown) [Compound 6], the “Remaining Percentages (%)” value in series [1] (human blood, 0 min) worked out at 100%; in series [1] (human blood, 10 min), 94.2%; in series [1] (human blood, 30 min), 77.3%; in series [1] (human blood, 60 min), 55.3%; in series [1] (human blood, 90 min), 41.1%; in series [1] (human blood, 120 min), 34.0%. The “Remaining Percentages (%)” value was 15.2% in series [1] (human blood, 180 min); 100% in series [2] (mouse blood, 0 min); 51.5% in series [2] (mouse blood, 10 min); 12.6% in series [2] (mouse blood, 30 min); 3.10% in series [2] (mouse blood, 60 min); 0.595% in series [2] (mouse blood, 90 min). In addition, the “Remaining Percentages (%)” value in series [2] (mouse blood, 120 min) is listed as 0.186%; in series [2] (mouse blood, 180 min), 0.232%. For the same molecule, the values for the half-life at 1 μM in series [1] and in series [2] were 1.12 h and 0.167 h, respectively. Besides, in series [4] (male C57BL/6 mice, 1.0 mg/kg intravenous or 5.0 mg/kg oral Compound 6), the “abnormal clinical symptoms during the test” value is “No mice were observed with abnormal clinical symptoms”. Further, the “Plasma itraconazole Concentration (ng/mL)” value is listed as “BLOQ” in series [4] (IV Dose 0.822 mg/kg Compound 6, 8 h, 0.822 mg/kg); “BLOQ” in series [4] (IV Dose 0.822 mg/kg Compound 6, 24 h); “BLOQ” in series [4] (PO Dose 4.11 mg/kg Compound 6, 24 h).

With `CCC(C)n1ncn(-c2ccc(N3CCN(c4ccc(OCC5COC(Cn6cncn6)(c6ccc(Cl)cc6Cl)O5)cc4)CC3)cc2)c1=O` (stereo not shown) [Itraconazole], the “adverse effect, in words” value in series [5] is “no observed adverse effect”.
